Measured values taken from ChEMBL document CHEMBL4622974, “Leveraging an Open Science Drug Discovery Model to Develop CNS-Penetrant ALK2 Inhibitors for the Treatment of Diffuse Intrinsic Pontine Glioma” (J Med Chem, 2020).
Active and inactive are the calls of the source. No cut-off for these calls is given here.

Tests used:
[1] = Half life in human liver microsomes at 1 uM incubated for 60 mins by LC/MS analysis; format: ADME, Microsome
[2] = Clearance in CB17 SCID mouse at 2 mg/kg, iv after 0.25 to 24 hrs by LC/MS/MS method; format: ADME, organism-based; conditions: in vivo
[3] = Ratio of drug level in brain to plasma in CB17 SCID mouse at 100 mg/kg, po measured at 4 h; format: ADME, organism-based; conditions: brain and plasma, read-out: BPR
[4] = Oral bioavailability in SD rat at 10 mg/kg after 0.25 to 24 hrs by LC/MS/MS method; format: ADME, organism-based; conditions: in vivo
[5] = Stability in human liver microsomes assessed as compound remaining at 1 uM incubated for 60 mins by LC/MS analysis; format: ADME, Microsome; conditions: read-out: Stability
[6] = Protein binding in human plasma assessed as free fraction at 5 uM after 4 hrs by rapid equilibrium dialysis; format: ADME, cell-free
[7] = biological target: Tyrosine-protein kinase ABL1 (Homo sapiens, UniProt P00519); assay: Inhibition of ABL1 (unknown origin)
Tyrosine-protein kinase ABL1, sequence (P00519 whole entry): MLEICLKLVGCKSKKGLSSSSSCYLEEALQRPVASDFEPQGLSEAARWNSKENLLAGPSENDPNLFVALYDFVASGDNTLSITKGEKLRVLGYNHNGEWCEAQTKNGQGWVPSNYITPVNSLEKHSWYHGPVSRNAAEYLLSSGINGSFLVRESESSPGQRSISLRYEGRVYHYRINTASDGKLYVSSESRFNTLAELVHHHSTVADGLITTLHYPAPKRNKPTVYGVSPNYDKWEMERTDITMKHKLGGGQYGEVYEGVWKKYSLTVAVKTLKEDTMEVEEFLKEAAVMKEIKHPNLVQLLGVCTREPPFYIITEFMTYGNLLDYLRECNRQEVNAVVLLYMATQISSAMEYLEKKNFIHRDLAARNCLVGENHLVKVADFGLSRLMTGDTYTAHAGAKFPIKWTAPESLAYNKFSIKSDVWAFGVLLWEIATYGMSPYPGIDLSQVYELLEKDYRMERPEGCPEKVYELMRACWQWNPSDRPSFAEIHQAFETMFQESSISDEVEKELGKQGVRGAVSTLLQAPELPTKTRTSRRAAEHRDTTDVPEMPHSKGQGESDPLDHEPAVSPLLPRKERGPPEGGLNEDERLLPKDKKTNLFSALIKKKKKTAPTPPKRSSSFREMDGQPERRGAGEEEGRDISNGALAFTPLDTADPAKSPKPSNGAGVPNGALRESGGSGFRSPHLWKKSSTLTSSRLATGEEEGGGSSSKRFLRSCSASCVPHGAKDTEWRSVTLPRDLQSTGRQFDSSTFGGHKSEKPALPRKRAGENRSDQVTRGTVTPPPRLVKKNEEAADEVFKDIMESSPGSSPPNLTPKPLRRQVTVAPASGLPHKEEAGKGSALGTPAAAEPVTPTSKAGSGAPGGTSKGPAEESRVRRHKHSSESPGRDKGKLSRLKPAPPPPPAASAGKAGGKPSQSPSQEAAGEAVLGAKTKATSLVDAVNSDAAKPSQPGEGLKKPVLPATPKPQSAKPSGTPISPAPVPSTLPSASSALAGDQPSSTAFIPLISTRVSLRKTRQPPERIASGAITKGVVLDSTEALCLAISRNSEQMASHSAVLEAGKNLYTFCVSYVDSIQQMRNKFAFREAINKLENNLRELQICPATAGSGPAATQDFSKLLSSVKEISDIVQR

[8] = Toxicity in CB17 SCID mouse assessed as induction of adverse effect at 2 mg/kg, iv; format: organism-based; conditions: in vivo
[9] = Volume of distribution at steady state in SD rat at 2 mg/kg, iv after 0.25 to 24 hrs by LC/MS/MS method; format: ADME, organism-based; conditions: in vivo, read-out: Vdss
[10] = biological target: Epithelial discoidin domain-containing receptor 1 (Homo sapiens, UniProt Q08345); assay: Inhibition of DDR1 (unknown origin)
Epithelial discoidin domain-containing receptor 1, sequence (Q08345 whole entry, the tested form may be a part): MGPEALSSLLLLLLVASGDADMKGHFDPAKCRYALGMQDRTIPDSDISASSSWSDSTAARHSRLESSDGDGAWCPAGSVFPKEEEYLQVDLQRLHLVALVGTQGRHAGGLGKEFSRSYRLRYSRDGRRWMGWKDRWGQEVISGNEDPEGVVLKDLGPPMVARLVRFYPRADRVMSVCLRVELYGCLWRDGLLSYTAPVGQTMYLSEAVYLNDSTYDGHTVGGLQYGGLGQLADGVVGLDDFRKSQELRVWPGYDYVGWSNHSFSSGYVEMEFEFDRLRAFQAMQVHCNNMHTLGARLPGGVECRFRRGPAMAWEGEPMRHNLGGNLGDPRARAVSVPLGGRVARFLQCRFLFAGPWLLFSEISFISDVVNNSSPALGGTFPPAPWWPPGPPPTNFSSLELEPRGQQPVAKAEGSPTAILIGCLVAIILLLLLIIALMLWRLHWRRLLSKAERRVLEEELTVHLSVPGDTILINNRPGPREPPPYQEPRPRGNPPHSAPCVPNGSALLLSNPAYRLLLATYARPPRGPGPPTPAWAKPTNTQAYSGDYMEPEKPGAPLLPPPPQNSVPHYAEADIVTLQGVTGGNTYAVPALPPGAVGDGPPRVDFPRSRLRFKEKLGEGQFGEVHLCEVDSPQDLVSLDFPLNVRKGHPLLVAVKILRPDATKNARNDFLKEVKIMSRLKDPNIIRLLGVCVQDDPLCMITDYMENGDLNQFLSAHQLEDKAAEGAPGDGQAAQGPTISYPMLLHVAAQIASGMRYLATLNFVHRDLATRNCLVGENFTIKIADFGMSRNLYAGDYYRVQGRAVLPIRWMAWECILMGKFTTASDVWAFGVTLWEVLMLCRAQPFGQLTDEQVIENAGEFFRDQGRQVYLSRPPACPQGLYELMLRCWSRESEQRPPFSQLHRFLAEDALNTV

[11] = biological target: TRAF2 and NCK-interacting protein kinase (Homo sapiens, UniProt Q9UKE5); assay: Inhibition of TNIK (unknown origin)
Activin receptor type-1B = biological target: T1, Activin receptor type-1B (Homo sapiens, UniProt P36896); assay: Inhibition of human ALK4 using casein as substrate in presence of [gamma-33P]-ATP by radiometric hotspot assay; format: ADME
T1 sequence (P36896 whole entry): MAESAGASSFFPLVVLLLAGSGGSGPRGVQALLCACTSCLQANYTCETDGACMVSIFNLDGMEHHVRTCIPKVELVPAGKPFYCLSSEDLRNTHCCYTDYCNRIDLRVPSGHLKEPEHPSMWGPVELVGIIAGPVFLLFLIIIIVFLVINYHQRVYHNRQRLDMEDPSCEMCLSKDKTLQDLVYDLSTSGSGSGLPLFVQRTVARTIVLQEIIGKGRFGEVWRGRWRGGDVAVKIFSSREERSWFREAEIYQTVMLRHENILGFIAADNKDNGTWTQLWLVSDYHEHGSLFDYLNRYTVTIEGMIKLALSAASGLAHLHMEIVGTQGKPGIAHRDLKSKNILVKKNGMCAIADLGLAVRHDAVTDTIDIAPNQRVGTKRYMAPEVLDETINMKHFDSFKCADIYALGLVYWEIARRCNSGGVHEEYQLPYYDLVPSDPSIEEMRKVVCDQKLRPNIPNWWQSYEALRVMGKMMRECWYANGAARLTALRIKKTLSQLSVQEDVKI

[12] = Mutagenicity in Salmonella typhimurium by mini Ames test; format: toxicity; conditions: salmonella enterica subsp. enterica serovar typhimurium
[13] = Clearance in SD rat at 2 mg/kg, iv after 0.25 to 24 hrs by LC/MS/MS method; format: ADME, organism-based; conditions: in vivo
[14] = Oral bioavailability in CB17 SCID mouse at 10 mg/kg after 0.25 to 24 hrs by LC/MS/MS method; format: ADME, organism-based; conditions: in vivo
[15] = AUCinfinity in CB17 SCID mouse at 10 mg/kg, po after 0.25 to 24 hrs by LC/MS/MS method; format: ADME, organism-based; set-up: dose 10 mg/kg, time infinity, route oral; conditions: in vivo
[16] = Toxicity in CB17 SCID mouse assessed as physical abnormalities at 100 mg/kg, po measured after 24 hrs; format: organism-based; conditions: in vivo
[17] = Half life in SD rat at 10 mg/kg, po after 0.25 to 24 hrs by LC/MS/MS method; format: ADME, organism-based; conditions: in vivo
[18] = Protein binding in human plasma at 5 uM after 4 hrs by rapid equilibrium dialysis; format: ADME, cell-free; conditions: read-out: PPB (converted)
Misshapen-like kinase 1 = Misshapen-like kinase 1 (Homo sapiens, UniProt Q8N4C8); assay: Inhibition of MINK (unknown origin)
[19] = Half life in CB17 SCID mouse at 10 mg/kg, po after 0.25 to 24 hrs by LC/MS/MS method; format: ADME, organism-based; conditions: in vivo
[20] = Half life in CD1 mouse liver microsomes at 1 uM incubated for 60 mins by LC/MS analysis; format: ADME, Microsome
[21] = Growth inhibition of human HSJD-DIPG-007 cells harboring ACVR1 R206H mutant; format: functional
[22] = biological target: Mitogen-activated protein kinase kinase kinase 20 (Homo sapiens, UniProt Q9NYL2); assay: Inhibition of ZAK (unknown origin)
[23] = Toxicity in CB17 SCID mouse assessed as induction of adverse effect at 10 mg/kg, po; format: organism-based; conditions: in vivo
[24] = biological target: Cannabinoid receptor 1 (CB1) (Homo sapiens, UniProt P21554); assay: Inhibition of recombinant human CB1 at 10 uM incubated for 60 mins by scintillation counting method
Cannabinoid receptor 1 (CB1), sequence (P21554 whole entry): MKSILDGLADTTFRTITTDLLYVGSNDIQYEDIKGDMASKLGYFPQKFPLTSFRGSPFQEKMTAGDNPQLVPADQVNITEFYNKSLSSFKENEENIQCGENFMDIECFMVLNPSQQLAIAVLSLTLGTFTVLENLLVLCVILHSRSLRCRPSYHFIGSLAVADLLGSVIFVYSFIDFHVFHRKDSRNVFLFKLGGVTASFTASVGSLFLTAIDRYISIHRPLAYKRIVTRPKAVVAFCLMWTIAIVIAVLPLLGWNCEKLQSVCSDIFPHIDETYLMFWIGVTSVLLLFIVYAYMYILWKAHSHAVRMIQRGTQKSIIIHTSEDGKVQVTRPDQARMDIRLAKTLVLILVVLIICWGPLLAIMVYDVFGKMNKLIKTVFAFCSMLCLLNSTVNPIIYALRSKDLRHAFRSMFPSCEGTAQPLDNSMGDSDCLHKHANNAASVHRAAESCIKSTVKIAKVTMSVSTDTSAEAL

[25] = Cmax in SD rat at 10 mg/kg, po after 0.25 to 24 hrs by LC/MS/MS method; format: ADME, organism-based; set-up: dose 10 mg/kg, route oral; conditions: in vivo
[26] = Toxicity in CB17 SCID mouse assessed as behavioural abnormalities at 100 mg/kg, po measured after 24 hrs; format: organism-based; conditions: in vivo
[27] = AUCinfinity in SD rat at 10 mg/kg, po after 0.25 to 24 hrs by LC/MS/MS method; format: ADME, organism-based; set-up: dose 10 mg/kg, route oral, time infinity; conditions: in vivo
[28] = Stability in CD1 mouse liver microsomes assessed as compound remaining at 1 uM incubated for 60 mins by LC/MS analysis; format: ADME, Microsome; conditions: read-out: Stability
[29] = biological target: Bone morphogenetic protein receptor type-1A (Homo sapiens, UniProt P36894); assay: Inhibition of human ALK3 using casein as substrate in presence of [gamma-33P]-ATP by radiometric hotspot assay
Bone morphogenetic protein receptor type-1A, sequence (P36894 whole entry): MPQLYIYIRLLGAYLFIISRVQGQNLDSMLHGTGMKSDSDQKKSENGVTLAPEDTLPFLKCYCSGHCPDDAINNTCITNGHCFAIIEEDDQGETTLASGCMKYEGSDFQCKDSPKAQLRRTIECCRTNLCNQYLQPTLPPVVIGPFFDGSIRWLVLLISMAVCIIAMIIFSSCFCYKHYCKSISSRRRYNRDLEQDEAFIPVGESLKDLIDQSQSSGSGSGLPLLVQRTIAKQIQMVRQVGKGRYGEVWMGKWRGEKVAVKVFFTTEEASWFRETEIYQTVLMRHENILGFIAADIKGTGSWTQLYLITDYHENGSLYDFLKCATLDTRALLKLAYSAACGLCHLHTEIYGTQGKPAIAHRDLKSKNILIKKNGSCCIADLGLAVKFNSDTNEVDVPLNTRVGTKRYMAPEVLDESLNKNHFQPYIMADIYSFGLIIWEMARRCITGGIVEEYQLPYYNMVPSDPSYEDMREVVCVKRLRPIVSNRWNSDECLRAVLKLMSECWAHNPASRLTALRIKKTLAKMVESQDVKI

[30] = Cmax in CB17 SCID mouse at 10 mg/kg, po after 0.25 to 24 hrs by LC/MS/MS method; format: ADME, organism-based; set-up: dose 10 mg/kg, route oral; conditions: in vivo
[31] = biological target: Protein-tyrosine kinase 6 (Homo sapiens, UniProt Q13882); assay: Inhibition of BRK (unknown origin)
[32] = Volume of distribution at steady state in CB17 SCID mouse at 2 mg/kg, iv after 0.25 to 24 hrs by LC/MS/MS method; format: ADME, organism-based; conditions: in vivo, read-out: Vdss
[33] = Growth inhibition of human SU-DIPG-XXI cells harboring ACVR1 G328W mutant; format: functional
[34] = Ratio of drug level in brain to plasma in CB17 SCID mouse at 10 mg/kg, po measured at 4 h; format: ADME, organism-based; conditions: brain and plasma, read-out: BPR

Structure (SMILES)	half-life at 1 µM [1]	clearance [2]	Kp at 4 h [3]	bioavailability [4]	remaining at 1 h, 1 µM [5]	fraction unbound at 4 h, 5 µM [6]	Activity [8]	Vd [9]	IC50 (Activin receptor type-1B)	clearance [13]	bioavailability [14]	AUC(0-inf) [15]	Activity [16]	half-life [17]	fraction unbound at 4 h, 5 µM [18]	half-life [19]	half-life at 1 µM [20]	GI50 [21]	Activity [23]	Cmax [25]	other results
COc1cc(-c2cncc(-c3ccc(N4CCNCC4)cc3)c2C)cc(OC)c1OC	> 1 h	12.7 mL/min/kg	1.1	96%	71.4%	0.057	Non-Toxic	5.22 L/kg	1340 nM	22.1 mL/min/kg	100%	51.7 µM·h	Non-Toxic	3.58 h	0.057	3.11 h	> 1 h	130 nM	Non-Toxic	1.28 µM	IC50 [7]: 336 to 924 nM; IC50 [10]: 41 nM; IC50 [11]: 96 nM; Activity [12]: Non-Toxic; IC50 (Misshapen-like kinase 1): 336 to 924 nM; IC50 [22]: 336 to 924 nM; inhibition at 1 h, 10 µM [24]: 97%; Activity [26]: Non-Toxic; AUC(0-inf) [27]: 17.4 µM·h; remaining at 1 h, 1 µM [28]: 64.6%; IC50 [29]: 428 nM; Cmax [30]: 6.16 µM; IC50 [31]: 336 to 924 nM; Vd [32]: 2.05 L/kg; GI50 [33]: 52 nM
COc1cc(-c2cncc(-c3ccc(C4CCN(C)CC4)cc3)c2C)cc(OC)c1OC	> 1 h	8.9 mL/min/kg	1.55	50%	71.2%	0.05	Non-Toxic	4.33 L/kg	> 2000 nM	15.1 mL/min/kg	74%	32.4 µM·h	Non-Toxic	3.9 h	0.05	3.67 h	> 1 h	36 nM	Non-Toxic	1.16 µM	inhibition [7]: Active; inhibition [10]: Active; inhibition [11]: Active; inhibition (Misshapen-like kinase 1): Active; inhibition [22]: Active; Activity [26]: Non-Toxic; AUC(0-inf) [27]: 12.9 µM·h; remaining at 1 h, 1 µM [28]: 55.5%; Cmax [30]: 4.74 µM; Kp at 4 h [34]: 0.82; inhibition [31]: Active; Vd [32]: 2.44 L/kg; GI50 [33]: 214 nM
